Data reported in patent publication US8278348B2, “Chondropsin-class antitumor V-atpase inhibitor compounds, compositions and methods of use thereof” (priority 2002, dated 2012).
pIC50: −log10 of the molar value.

What was measured:
Assay in all cases: Two day XTT cytotoxicity assay
Format in all cases: cell-based
OVCAR-3 = conditions: Homo sapiens, Ovarian
Source text: (§1) This example describes the cytoxicity of poecillastrin A (1), isolated in Example 1. The cytotoxicity assay, details of which have been described previously (Bokesch et al., J. Nat. Prod. 1999, 62, 633-635), utilized melanoma (LOX), breast […], ovarian (OVCAR-3), and non-small cell lung (SNB-19) human tumor cell lines and IC-2^WT and IC-2^V814 murine mast cell lines (Hashimoto et al., Am. J. Pathol. 1996, 148, 189-200).
(§2) The in vitro 10 cell-line bioassay was a two day bioassay. Cells were grown in RPMI-1640 (Rosweli Park Memorial Institute) without L-glutamine, supplemented with 10% fetal bovine serum, 5.0 mL of a 200 mM glutamine stock, and 0.5 mL of gentamicin and plated out in T-162 cm^2 flasks. Once the cells were confluent, they were harvested and plated in 96-well microtiter flat-bottom plates at a seeding density of 50-10,000 cells per well, to yield optical density readings in the range of 1-2.0, and incubated for 1 h in a 37° C., 5% CO2 incubator. After the 1 h incubation, the cells were then introduced to the sample of poecillastrin A, via a Beckman Biomek Workstation-1000. The Biomek-1000 performed seven serial dilutions in a 96-well round-bottom plate and then transferred aliquots of 100 μL to the assay plate. The plate was then returned to the incubator for […]. After the two day incubation, the cells were exposed to tetrazolium salt, 2,3-bis[2-methoxy-4-nitro-5-sulfophenyl]-2H-tetrazolium-5-carboxanilide (XTT), for a 4 h incubation in a 37° C. incubator, where viable cells reduced the tetrazolium salt to a colored formazan product. Once the incubation was complete, the plates were read in a dual wavelength mode at 450 nm, with a 650 nm reference, using a SpectraMAX 250 (Molecular Devices) plate reader. Resulting data for each cell line are found in Table 3.

LOX = conditions: Homo sapiens, Melanoma
Source text: as §1, §2

IC-2 WT = conditions: Mus musculus, Murine mast cell
Source text: as §1, §2

A549 = conditions: Homo sapiens, Breast
Source text: as §1, §2

IC-2 V814 = conditions: Mus musculus, Murine mast cell
Source text: as §1, §2

SNB-19 = conditions: Homo sapiens, Non-small cell lung
Source text: as §1, §2

In the case of `COC1/C=C/C=C/CC/C=C/C=C/C(=O)NC(C(O)C(=O)O)C(=O)OC(C(C)C(O)C(NC(=O)C(C)C(O)CCC(C)C(O)/C(C)=C/C(C)(C)C(O)C(CC(C)C)NC(=O)/C=C/C(C)(C)C(=O)C(C)C(O)C(C)C)C(C)O)C/C=C(\C)C(O)C(C)/C=C(\C)C(O)C(C)C(O)CC2CC(C)CC1O2` (stereo not drawn) [Poecillastrin A, poecillastrin A], the pIC50 (OVCAR-3) was 7.55, the pIC50 (LOX) was 7.85 and the pIC50 (IC-2 WT) was 6.69. The pIC50 (A549) was less than 5.00, the pIC50 (IC-2 V814) was 6.26 and the pIC50 (SNB-19) was less than 5.00.
